# Test results reported in PMC5224920, “Assessing the mechanism and therapeutic potential of modulators of the human Mediator complex-associated protein kinases” (eLife, 2016).
# Tested on: 12 single or co-culture in vitro tissue models of primary cells
# Test: Culture/co-culture cell model panel, extracellular biomarkers (DiscoveRx); as to CCL2/MCP-1: reference of the scale not given here; as to CD38: reference of the scale not given here; as to CD40: reference of the scale not given here; as to CD69: reference of the scale not given here; as to CXCL8/IL-8: reference of the scale not given here; as to CXCL9/MIG: reference of the scale not given here; as to IL-1alpha: reference of the scale not given here; as to M-CSF: reference of the scale not given here; as to PBMC Cytotoxicity: reference of the scale not given here
# Type: cell-based, human
# [1] = /Mphg Huvec+macrophages, 4.12E1 nM
# [2] = /Mphg Huvec+macrophages, 4.57E0 nM
compound,measurement,setting,value
Cc1n[nH]c2ncc(C(=O)N3CCC[C@H]3c3ccc(Cl)cc3)cc12 [CMPD4],IL-1alpha,[1],-0.015
same,M-CSF,[1],-0.025
same,SRB,[1],-0.00546
same,SRB-Mphg,[1],0.005
same,sIL-10,[1],-0.021
same,CCL2/MCP-1,[2],-0.005
same,CCL3/MIP-1alpha,[2],-0.00218
same,CD40,[2],-0.087
same,CD62E/E-Selectin,[2],-0.111
same,CD69,[2],0.012
same,CD106/VCAM-1,[2],0.00354
same,CXCL8/IL-8,[2],-0.024
same,IL-1alpha,[2],0.018
same,M-CSF,[2],-0.010
same,SRB,[2],0.001
same,SRB-Mphg,[2],0.011
same,sIL-10,[2],0.038
same,CCL2/MCP-1,"/TH2, 1.00E4 nM",-0.115
same,CCL26/Eotaxin-3,"/TH2, 1.00E4 nM",-0.131
same,CD38,"/TH2, 1.00E4 nM",-0.035
same,CD40,"/TH2, 1.00E4 nM",-0.240
same,CD62E/E-Selectin,"/TH2, 1.00E4 nM",0.049
same,CD62P/P-selectin,"/TH2, 1.00E4 nM",-0.00467
same,CD69,"/TH2, 1.00E4 nM",-0.006
same,CD87/uPAR,"/TH2, 1.00E4 nM",-0.174
same,CD106/VCAM-1,"/TH2, 1.00E4 nM",-0.004
same,CXCL8/IL-8,"/TH2, 1.00E4 nM",-0.049
same,CXCL9/MIG,"/TH2, 1.00E4 nM",-0.021
same,Collagen IV,"/TH2, 1.00E4 nM",0.028
same,PBMC Cytotoxicity,"/TH2, 1.00E4 nM",-0.00277
same,SRB,"/TH2, 1.00E4 nM",-0.174
same,sIL-17A,"/TH2, 1.00E4 nM",0.175
same,sIL-17F,"/TH2, 1.00E4 nM",0.137
same,CCL2/MCP-1,"/TH2, 1.11E3 nM",-0.084
same,CCL26/Eotaxin-3,"/TH2, 1.11E3 nM",-0.167
same,CD38,"/TH2, 1.11E3 nM",-0.006
same,CD40,"/TH2, 1.11E3 nM",-0.166
same,CD62E/E-Selectin,"/TH2, 1.11E3 nM",0.083
same,CD62P/P-selectin,"/TH2, 1.11E3 nM",-0.044
same,CD69,"/TH2, 1.11E3 nM",0.041
same,CD87/uPAR,"/TH2, 1.11E3 nM",-0.190
same,CD106/VCAM-1,"/TH2, 1.11E3 nM",0.034
same,CXCL8/IL-8,"/TH2, 1.11E3 nM",-0.084
same,CXCL9/MIG,"/TH2, 1.11E3 nM",-0.034
same,Collagen IV,"/TH2, 1.11E3 nM",-0.00538
same,PBMC Cytotoxicity,"/TH2, 1.11E3 nM",-0.052
same,SRB,"/TH2, 1.11E3 nM",-0.084
same,sIL-17A,"/TH2, 1.11E3 nM",0.045
same,sIL-17F,"/TH2, 1.11E3 nM",0.003
same,CCL2/MCP-1,"/TH2, 1.23E2 nM",-0.100
same,CCL26/Eotaxin-3,"/TH2, 1.23E2 nM",-0.152
same,CD38,"/TH2, 1.23E2 nM",-0.00143
same,CD40,"/TH2, 1.23E2 nM",-0.162
same,CD62E/E-Selectin,"/TH2, 1.23E2 nM",0.078
same,CD62P/P-selectin,"/TH2, 1.23E2 nM",-0.060
same,CD69,"/TH2, 1.23E2 nM",0.046
same,CD87/uPAR,"/TH2, 1.23E2 nM",-0.227
same,CD106/VCAM-1,"/TH2, 1.23E2 nM",0.025
same,CXCL8/IL-8,"/TH2, 1.23E2 nM",-0.055
same,CXCL9/MIG,"/TH2, 1.23E2 nM",-0.030
same,Collagen IV,"/TH2, 1.23E2 nM",-0.013
same,PBMC Cytotoxicity,"/TH2, 1.23E2 nM",0.007
same,SRB,"/TH2, 1.23E2 nM",-0.061
same,sIL-17A,"/TH2, 1.23E2 nM",0.043
same,sIL-17F,"/TH2, 1.23E2 nM",0.061
same,CCL2/MCP-1,"/TH2, 1.37E1 nM",-0.029
same,CCL26/Eotaxin-3,"/TH2, 1.37E1 nM",-0.152
same,CD38,"/TH2, 1.37E1 nM",0.015
same,CD40,"/TH2, 1.37E1 nM",-0.156
same,CD62E/E-Selectin,"/TH2, 1.37E1 nM",0.024
same,CD62P/P-selectin,"/TH2, 1.37E1 nM",-0.040
same,CD69,"/TH2, 1.37E1 nM",0.016
same,CD87/uPAR,"/TH2, 1.37E1 nM",-0.193
same,CD106/VCAM-1,"/TH2, 1.37E1 nM",0.020
same,CXCL8/IL-8,"/TH2, 1.37E1 nM",-0.050
same,CXCL9/MIG,"/TH2, 1.37E1 nM",0.013
same,Collagen IV,"/TH2, 1.37E1 nM",0.018
same,PBMC Cytotoxicity,"/TH2, 1.37E1 nM",-0.060
same,SRB,"/TH2, 1.37E1 nM",-0.037
same,sIL-17A,"/TH2, 1.37E1 nM",-0.008
same,sIL-17F,"/TH2, 1.37E1 nM",0.096
same,CCL2/MCP-1,"/TH2, 3.33E3 nM",-0.125
